The numbers were not newly measured in patent publication US20220241165A1, “ORAL CARE COMPOSITIONS COMPRISING OXALIC ACID” (The Procter & Gamble Company, priority 2021, published 2022), which cites them from elsewhere.

For the compound `O=C(O)C(=O)O` [oxalate ion], the pKa (as a rule, the pH at which an ionisable group is half protonated) is given as 4.1.
